PubChem BioAssay (NCI)
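Growth conditions: 96-well plates. Treatment: test compound, 48 hours, 5 concentrations. Analysis: linear interpolation between bracketing concentrations; unreached endpoints set to highest concentration. TGI is the concentration that stops growth completely.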

The compounds below were run on SNB-75 CNS (assay: DTP human tumour cell line panel, 48 h).

SMILES	TGI [µM]
Cc1ccc2nc(NS(=O)(=O)c3cc(C)c(Cl)cc3S)[nH]c2c1	> 100
COc1cc(OC)c2c(=O)c3cccc(C)c3n(C)c2c1	> 100
O=C1NC(N/N=C\c2ccccc2)=N/C1=C/c1ccccc1	63.2
CC(C)(C)OC(=O)CCCCCNC(=O)CCCCCNC(=O)CCC(CN(CC(=O)OCc1ccccc1)CC(=O)OCc1ccccc1)N(CC(=O)OCc1ccccc1)CC(=O)OCc1ccccc1 (stereo not given)	81.9
O=[N+]([O-])/C(Cl)=C(/C(Cl)=C(Cl)Cl)N1CCOCC1	17.9
CN=c1sc2nc(C#N)c(C#N)nc2n1C	51.4
C[C@@H]1CC[C@@H]2[C@@H](C1)O[C@@H]([C@@H](C)OCc1ccccc1)SC2(C)C	34
Cc1cn(C2CC(N=[N+]=[N-])C(COP(=O)(O)OCC3OC(n4cc(F)c(=O)[nH]c4=O)CC3O)O2)c(=O)[nH]c1=O (stereo not given)	21.6
COC(=O)C(=O)Nc1cc2c3c(c1)Oc1cccc4c1C3(C)c1c(cccc1O2)O4	> 100

Each compound was assayed on SR leukemia (assay: DTP human tumour cell line panel, 48 h).

SMILES	TGI [µM]
Cc1ccc2nc(NS(=O)(=O)c3cc(C)c(Cl)cc3S)[nH]c2c1	> 100
COc1cc(OC)c2c(=O)c3cccc(C)c3n(C)c2c1	> 100
O=C1NC(N/N=C\c2ccccc2)=N/C1=C/c1ccccc1	53.9
CC(C)(C)OC(=O)CCCCCNC(=O)CCCCCNC(=O)CCC(CN(CC(=O)OCc1ccccc1)CC(=O)OCc1ccccc1)N(CC(=O)OCc1ccccc1)CC(=O)OCc1ccccc1 (stereo not given)	> 100
O=[N+]([O-])/C(Cl)=C(/C(Cl)=C(Cl)Cl)N1CCOCC1	6.42
CN=c1sc2nc(C#N)c(C#N)nc2n1C	> 79.6
C[C@@H]1CC[C@@H]2[C@@H](C1)O[C@@H]([C@@H](C)OCc1ccccc1)SC2(C)C	34.9
Cc1cn(C2CC(N=[N+]=[N-])C(COP(=O)(O)OCC3OC(n4cc(F)c(=O)[nH]c4=O)CC3O)O2)c(=O)[nH]c1=O (stereo not given)	> 100
COC(=O)C(=O)Nc1cc2c3c(c1)Oc1cccc4c1C3(C)c1c(cccc1O2)O4	> 100

What follows are compounds tested on SW-620 colon (assay: DTP human tumour cell line panel, 48 h).

SMILES	TGI [µM]
Cc1ccc2nc(NS(=O)(=O)c3cc(C)c(Cl)cc3S)[nH]c2c1	> 100
COc1cc(OC)c2c(=O)c3cccc(C)c3n(C)c2c1	> 100
O=C1NC(N/N=C\c2ccccc2)=N/C1=C/c1ccccc1	> 100
CC(C)(C)OC(=O)CCCCCNC(=O)CCCCCNC(=O)CCC(CN(CC(=O)OCc1ccccc1)CC(=O)OCc1ccccc1)N(CC(=O)OCc1ccccc1)CC(=O)OCc1ccccc1 (stereo not given)	> 100
O=[N+]([O-])/C(Cl)=C(/C(Cl)=C(Cl)Cl)N1CCOCC1	11.7
CN=c1sc2nc(C#N)c(C#N)nc2n1C	36.2
C[C@@H]1CC[C@@H]2[C@@H](C1)O[C@@H]([C@@H](C)OCc1ccccc1)SC2(C)C	34
Cc1cn(C2CC(N=[N+]=[N-])C(COP(=O)(O)OCC3OC(n4cc(F)c(=O)[nH]c4=O)CC3O)O2)c(=O)[nH]c1=O (stereo not given)	> 100
COC(=O)C(=O)Nc1cc2c3c(c1)Oc1cccc4c1C3(C)c1c(cccc1O2)O4	> 100

Each compound was assayed on TK-10 renal (assay: DTP human tumour cell line panel, 48 h).

SMILES	TGI [µM]
Cc1ccc2nc(NS(=O)(=O)c3cc(C)c(Cl)cc3S)[nH]c2c1	> 100
COc1cc(OC)c2c(=O)c3cccc(C)c3n(C)c2c1	> 100
O=C1NC(N/N=C\c2ccccc2)=N/C1=C/c1ccccc1	> 100
CC(C)(C)OC(=O)CCCCCNC(=O)CCCCCNC(=O)CCC(CN(CC(=O)OCc1ccccc1)CC(=O)OCc1ccccc1)N(CC(=O)OCc1ccccc1)CC(=O)OCc1ccccc1 (stereo not given)	> 100
O=[N+]([O-])/C(Cl)=C(/C(Cl)=C(Cl)Cl)N1CCOCC1	13.6
CN=c1sc2nc(C#N)c(C#N)nc2n1C	> 63.4
C[C@@H]1CC[C@@H]2[C@@H](C1)O[C@@H]([C@@H](C)OCc1ccccc1)SC2(C)C	55.4
Cc1cn(C2CC(N=[N+]=[N-])C(COP(=O)(O)OCC3OC(n4cc(F)c(=O)[nH]c4=O)CC3O)O2)c(=O)[nH]c1=O (stereo not given)	> 100
COC(=O)C(=O)Nc1cc2c3c(c1)Oc1cccc4c1C3(C)c1c(cccc1O2)O4	> 100

Each compound was assayed on UACC-257 melanoma (assay: DTP human tumour cell line panel, 48 h).

SMILES	TGI [µM]
Cc1ccc2nc(NS(=O)(=O)c3cc(C)c(Cl)cc3S)[nH]c2c1	> 100
COc1cc(OC)c2c(=O)c3cccc(C)c3n(C)c2c1	> 100
O=C1NC(N/N=C\c2ccccc2)=N/C1=C/c1ccccc1	> 100
CC(C)(C)OC(=O)CCCCCNC(=O)CCCCCNC(=O)CCC(CN(CC(=O)OCc1ccccc1)CC(=O)OCc1ccccc1)N(CC(=O)OCc1ccccc1)CC(=O)OCc1ccccc1 (stereo not given)	> 100
O=[N+]([O-])/C(Cl)=C(/C(Cl)=C(Cl)Cl)N1CCOCC1	9.3
CN=c1sc2nc(C#N)c(C#N)nc2n1C	> 100
C[C@@H]1CC[C@@H]2[C@@H](C1)O[C@@H]([C@@H](C)OCc1ccccc1)SC2(C)C	39.9
Cc1cn(C2CC(N=[N+]=[N-])C(COP(=O)(O)OCC3OC(n4cc(F)c(=O)[nH]c4=O)CC3O)O2)c(=O)[nH]c1=O (stereo not given)	> 100
COC(=O)C(=O)Nc1cc2c3c(c1)Oc1cccc4c1C3(C)c1c(cccc1O2)O4	> 100
